Format in all cases: cell-based
A short description of data set [1]: Cytotoxicity against human monocytes at 100 uM after 24 hrs. Conditions: monocyte.
Data set [2] concerns the target C-C chemokine receptor type 2 (Homo sapiens) (UniProt P41597). Briefly: Inhibition of CCR2 in human monocytes assessed as CCL2-induced cell migration at 10 uM after 1.5 hrs by micro-Boyden chamber.
For data set [3] the target is unchanged. The experiment in a line: Inhibition of CCR2 in human monocytes assessed as CCL2-induced cell migration at 100 uM after 1.5 hrs by micro-Boyden chamber.
Data set [4] shares this target. The experiment in a line: Inhibition of CCR2 in human monocytes assessed as cell migration at 100 uM after 30 mins.

Molecules are shown by their SMILES. The source made the active and inactive calls. The rule behind the calls is not given here.

Sequence of C-C chemokine receptor type 2 (Homo sapiens) (P41597 whole entry, looked up): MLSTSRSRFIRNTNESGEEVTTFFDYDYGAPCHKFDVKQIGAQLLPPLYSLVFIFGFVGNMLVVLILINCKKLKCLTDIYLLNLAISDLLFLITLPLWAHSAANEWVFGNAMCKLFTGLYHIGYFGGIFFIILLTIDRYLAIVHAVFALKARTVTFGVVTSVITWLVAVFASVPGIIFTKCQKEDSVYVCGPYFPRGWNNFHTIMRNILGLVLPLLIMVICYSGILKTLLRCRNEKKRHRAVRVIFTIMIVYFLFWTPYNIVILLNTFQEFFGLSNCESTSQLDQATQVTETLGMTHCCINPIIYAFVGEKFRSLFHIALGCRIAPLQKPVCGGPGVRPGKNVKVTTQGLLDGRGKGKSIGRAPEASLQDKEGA

With `O=C1N[C@H](Cc2cc(Cl)c(O)c(Cl)c2)C(=O)N2CCC[C@H]12`, the Activity entry in data set [1] was “Non-toxic”. The inhibition result in data set [2] was “Active”.

For the compound `O=C1N[C@@H](Cc2ccc(O)cc2)C(=O)N2CCC[C@@H]12`, the inhibition result in data set [3] and in data set [4] was “inactive” throughout. In addition, the Activity result in data set [1] is “Non-toxic”.

As to `CC(C)C[C@@H]1C(=O)N[C@@H](Cc2c[nH]c3ccccc23)C(=O)N1C`, the inhibition result in data set [3] is “inactive”. Further, in data set [1], the Activity entry was “Non-toxic”.

For the compound `CON1C(=O)C2NC(=O)[C@@]13Oc1cc(O)c(Cl)cc1[C@@H]3SS2`, the Activity result in data set [1] is given as “Toxic”.
